Format in all cases: binding
For assay [1], the target named is kinases (KINOMEscan panel) (Homo sapiens, UniProt O75914). Particulars: NEW KINOMEscan.
For assay [2], the target named is kinases (KINOMEscan panel) (Homo sapiens, UniProt P00533, G719C). As to conditions: kinase EGFR(G719C); NEW KINOMEscan.
Assay [3] has as its target kinases (KINOMEscan panel) (Homo sapiens, UniProt P06241). As to conditions: kinase FYN; NEW KINOMEscan.
For assay [4], the target named is kinases (KINOMEscan panel) (Homo sapiens, UniProt P07948). As to conditions: NEW KINOMEscan.
Sequence of kinases (KINOMEscan panel) (Homo sapiens, UniProt P07948) (P07948 whole entry): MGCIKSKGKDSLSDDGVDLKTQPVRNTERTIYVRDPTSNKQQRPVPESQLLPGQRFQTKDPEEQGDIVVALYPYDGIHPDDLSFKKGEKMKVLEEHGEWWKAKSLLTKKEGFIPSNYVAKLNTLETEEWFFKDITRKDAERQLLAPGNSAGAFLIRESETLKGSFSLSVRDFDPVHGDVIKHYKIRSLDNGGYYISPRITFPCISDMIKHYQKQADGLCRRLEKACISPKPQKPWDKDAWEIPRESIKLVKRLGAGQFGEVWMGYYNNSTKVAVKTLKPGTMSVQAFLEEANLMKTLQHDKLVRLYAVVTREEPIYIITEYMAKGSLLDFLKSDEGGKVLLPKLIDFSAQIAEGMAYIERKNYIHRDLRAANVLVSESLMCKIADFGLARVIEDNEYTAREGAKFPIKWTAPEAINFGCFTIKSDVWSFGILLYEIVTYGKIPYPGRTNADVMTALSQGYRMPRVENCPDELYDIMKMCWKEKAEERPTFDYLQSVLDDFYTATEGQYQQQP
For assay [5], the target named is T1, kinases (KINOMEscan panel) (Homo sapiens, UniProt P29320).
T1 sequence (P29320 21-983): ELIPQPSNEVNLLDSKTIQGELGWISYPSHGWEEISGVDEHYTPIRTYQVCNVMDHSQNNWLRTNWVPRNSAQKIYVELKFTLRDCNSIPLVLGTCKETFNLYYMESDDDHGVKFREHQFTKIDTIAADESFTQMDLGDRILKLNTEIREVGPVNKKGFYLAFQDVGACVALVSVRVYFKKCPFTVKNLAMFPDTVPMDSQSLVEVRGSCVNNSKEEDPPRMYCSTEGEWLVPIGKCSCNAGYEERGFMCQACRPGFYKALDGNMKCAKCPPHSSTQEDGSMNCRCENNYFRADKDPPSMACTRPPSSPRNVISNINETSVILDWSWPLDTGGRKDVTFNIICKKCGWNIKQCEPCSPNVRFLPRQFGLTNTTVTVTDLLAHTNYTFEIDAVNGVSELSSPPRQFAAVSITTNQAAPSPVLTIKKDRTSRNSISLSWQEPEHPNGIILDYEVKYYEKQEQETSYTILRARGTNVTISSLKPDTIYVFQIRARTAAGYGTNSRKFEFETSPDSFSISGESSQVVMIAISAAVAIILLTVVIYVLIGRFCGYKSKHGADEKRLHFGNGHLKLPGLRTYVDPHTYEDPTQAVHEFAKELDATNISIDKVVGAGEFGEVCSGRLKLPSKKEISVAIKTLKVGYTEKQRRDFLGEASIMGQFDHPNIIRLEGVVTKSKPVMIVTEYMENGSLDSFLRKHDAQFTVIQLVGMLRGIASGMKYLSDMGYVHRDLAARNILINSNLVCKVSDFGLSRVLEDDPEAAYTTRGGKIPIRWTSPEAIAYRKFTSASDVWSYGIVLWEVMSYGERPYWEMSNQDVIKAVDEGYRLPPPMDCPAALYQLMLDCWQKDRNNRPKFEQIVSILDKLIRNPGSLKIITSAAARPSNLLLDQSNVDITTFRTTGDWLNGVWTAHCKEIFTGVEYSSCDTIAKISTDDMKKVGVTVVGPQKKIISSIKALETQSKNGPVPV
As to conditions: kinase EPHA3; NEW KINOMEscan.

Assay [6] deals with kinases (KINOMEscan panel) (Homo sapiens, UniProt P54756). Particulars: kinase EPHA5; NEW KINOMEscan.
Sequence of kinases (KINOMEscan panel) (Homo sapiens, UniProt P54756) (P54756 25-1037): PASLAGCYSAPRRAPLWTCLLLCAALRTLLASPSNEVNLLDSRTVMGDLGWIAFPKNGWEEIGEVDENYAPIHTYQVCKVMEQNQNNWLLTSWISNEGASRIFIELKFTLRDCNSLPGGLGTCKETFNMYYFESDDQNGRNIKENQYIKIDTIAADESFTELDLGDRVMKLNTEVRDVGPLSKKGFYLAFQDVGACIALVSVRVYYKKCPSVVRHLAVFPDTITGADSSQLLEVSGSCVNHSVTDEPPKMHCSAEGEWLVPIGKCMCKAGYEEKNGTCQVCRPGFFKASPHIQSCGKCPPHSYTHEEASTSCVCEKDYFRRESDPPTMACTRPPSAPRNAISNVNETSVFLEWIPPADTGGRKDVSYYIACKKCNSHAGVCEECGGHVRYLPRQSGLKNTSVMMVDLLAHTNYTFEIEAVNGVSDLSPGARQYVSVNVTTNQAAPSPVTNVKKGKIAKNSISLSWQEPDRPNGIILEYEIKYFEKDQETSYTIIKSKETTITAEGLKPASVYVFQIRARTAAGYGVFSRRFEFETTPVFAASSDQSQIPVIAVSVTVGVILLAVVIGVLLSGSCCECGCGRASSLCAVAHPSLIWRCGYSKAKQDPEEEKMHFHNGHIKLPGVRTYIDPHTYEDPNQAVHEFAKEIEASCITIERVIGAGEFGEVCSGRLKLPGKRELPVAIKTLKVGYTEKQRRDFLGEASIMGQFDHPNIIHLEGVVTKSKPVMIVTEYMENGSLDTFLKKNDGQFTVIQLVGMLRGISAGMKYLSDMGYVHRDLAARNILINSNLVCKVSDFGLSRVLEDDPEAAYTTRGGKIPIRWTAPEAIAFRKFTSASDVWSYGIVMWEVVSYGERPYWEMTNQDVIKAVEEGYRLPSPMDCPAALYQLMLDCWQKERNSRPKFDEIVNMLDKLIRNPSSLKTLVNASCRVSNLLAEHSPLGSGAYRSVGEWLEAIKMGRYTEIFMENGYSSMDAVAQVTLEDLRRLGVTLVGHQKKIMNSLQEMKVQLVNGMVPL
Assay [7] has as its target kinases (KINOMEscan panel) (Homo sapiens, UniProt Q00536). As to conditions: kinase CDK16; NEW KINOMEscan.
Assay [8] deals with T2, kinases (KINOMEscan panel) (Homo sapiens, UniProt Q8IYT8).
T2 sequence (Q8IYT8 1-1036): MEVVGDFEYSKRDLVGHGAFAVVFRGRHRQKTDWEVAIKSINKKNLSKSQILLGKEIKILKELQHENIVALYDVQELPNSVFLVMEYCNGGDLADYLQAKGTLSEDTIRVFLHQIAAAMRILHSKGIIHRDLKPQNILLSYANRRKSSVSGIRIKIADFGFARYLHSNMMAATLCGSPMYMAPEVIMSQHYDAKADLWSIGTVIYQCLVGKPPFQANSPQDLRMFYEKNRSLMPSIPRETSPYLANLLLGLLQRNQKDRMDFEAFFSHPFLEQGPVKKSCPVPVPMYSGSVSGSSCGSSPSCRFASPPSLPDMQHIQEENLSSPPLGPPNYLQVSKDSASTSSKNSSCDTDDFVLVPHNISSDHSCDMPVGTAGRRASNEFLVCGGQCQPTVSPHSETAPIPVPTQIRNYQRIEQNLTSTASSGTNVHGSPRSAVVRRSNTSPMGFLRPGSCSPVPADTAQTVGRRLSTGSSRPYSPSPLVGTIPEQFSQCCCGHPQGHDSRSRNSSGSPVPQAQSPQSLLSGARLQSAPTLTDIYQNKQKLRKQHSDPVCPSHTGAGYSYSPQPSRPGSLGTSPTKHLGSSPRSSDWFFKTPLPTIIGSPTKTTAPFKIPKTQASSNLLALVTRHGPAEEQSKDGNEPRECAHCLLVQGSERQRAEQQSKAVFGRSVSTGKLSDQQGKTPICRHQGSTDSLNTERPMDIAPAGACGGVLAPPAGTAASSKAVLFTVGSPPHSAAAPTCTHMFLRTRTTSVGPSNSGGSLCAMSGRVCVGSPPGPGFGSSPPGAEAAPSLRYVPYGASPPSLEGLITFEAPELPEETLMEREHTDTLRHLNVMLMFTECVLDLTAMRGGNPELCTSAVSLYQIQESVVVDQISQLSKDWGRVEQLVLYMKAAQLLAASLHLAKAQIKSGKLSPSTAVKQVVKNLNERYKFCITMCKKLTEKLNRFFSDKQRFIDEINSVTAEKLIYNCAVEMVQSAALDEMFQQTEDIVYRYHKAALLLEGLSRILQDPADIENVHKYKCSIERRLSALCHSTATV
As to conditions: NEW KINOMEscan.

Assay [9] deals with kinases (KINOMEscan panel) (Homo sapiens, UniProt Q9UEW8). Particulars: NEW KINOMEscan.

Sequence of kinases (KINOMEscan panel) (Homo sapiens, UniProt P00533, G719C) (P00533 25-1210 G719C): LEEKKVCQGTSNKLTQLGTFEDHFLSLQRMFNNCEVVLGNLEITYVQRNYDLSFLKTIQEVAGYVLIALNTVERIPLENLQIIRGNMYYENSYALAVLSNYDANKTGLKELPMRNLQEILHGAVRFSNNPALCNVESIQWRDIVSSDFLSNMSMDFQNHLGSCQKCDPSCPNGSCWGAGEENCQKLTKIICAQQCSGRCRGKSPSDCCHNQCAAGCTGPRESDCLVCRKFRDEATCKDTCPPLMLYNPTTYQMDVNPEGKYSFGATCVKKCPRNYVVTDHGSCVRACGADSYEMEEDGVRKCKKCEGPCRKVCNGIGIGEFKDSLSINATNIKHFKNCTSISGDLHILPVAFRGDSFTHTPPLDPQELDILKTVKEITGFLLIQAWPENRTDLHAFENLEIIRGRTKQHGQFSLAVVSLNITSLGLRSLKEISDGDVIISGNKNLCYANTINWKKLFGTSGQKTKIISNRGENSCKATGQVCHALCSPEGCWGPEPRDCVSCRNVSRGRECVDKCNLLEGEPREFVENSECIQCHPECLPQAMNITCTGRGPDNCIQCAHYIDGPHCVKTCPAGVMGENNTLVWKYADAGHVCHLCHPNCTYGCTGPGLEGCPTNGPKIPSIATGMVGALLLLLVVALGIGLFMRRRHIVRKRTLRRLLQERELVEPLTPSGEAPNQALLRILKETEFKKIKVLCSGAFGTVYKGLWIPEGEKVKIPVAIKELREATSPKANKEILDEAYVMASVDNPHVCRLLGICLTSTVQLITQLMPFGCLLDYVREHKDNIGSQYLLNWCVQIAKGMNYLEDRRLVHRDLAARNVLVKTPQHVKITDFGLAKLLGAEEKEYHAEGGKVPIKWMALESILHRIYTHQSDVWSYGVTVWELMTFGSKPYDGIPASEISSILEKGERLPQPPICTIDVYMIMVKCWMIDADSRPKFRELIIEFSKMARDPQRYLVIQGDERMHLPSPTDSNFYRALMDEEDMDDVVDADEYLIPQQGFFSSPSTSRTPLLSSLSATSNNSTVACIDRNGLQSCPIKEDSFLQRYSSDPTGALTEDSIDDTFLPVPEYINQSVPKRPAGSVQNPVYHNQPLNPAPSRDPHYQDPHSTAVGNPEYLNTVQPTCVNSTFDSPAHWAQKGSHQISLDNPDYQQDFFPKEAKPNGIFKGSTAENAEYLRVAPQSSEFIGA
Sequence of kinases (KINOMEscan panel) (Homo sapiens, UniProt Q00536) (Q00536 whole entry): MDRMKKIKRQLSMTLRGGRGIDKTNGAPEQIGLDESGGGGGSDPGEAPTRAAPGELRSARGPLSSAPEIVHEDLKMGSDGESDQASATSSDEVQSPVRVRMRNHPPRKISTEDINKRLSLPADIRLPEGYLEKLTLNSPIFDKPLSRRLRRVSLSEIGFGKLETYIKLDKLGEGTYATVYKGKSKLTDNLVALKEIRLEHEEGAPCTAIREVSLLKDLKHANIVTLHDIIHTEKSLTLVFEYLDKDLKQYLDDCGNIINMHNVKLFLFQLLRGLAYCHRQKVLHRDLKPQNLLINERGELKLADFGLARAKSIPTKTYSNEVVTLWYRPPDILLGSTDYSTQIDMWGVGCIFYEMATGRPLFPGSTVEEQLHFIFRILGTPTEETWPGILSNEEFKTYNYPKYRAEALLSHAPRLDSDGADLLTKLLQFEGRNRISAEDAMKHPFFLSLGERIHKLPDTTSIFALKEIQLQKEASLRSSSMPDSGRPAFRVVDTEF
Sequence of kinases (KINOMEscan panel) (Homo sapiens, UniProt P06241) (P06241 whole entry): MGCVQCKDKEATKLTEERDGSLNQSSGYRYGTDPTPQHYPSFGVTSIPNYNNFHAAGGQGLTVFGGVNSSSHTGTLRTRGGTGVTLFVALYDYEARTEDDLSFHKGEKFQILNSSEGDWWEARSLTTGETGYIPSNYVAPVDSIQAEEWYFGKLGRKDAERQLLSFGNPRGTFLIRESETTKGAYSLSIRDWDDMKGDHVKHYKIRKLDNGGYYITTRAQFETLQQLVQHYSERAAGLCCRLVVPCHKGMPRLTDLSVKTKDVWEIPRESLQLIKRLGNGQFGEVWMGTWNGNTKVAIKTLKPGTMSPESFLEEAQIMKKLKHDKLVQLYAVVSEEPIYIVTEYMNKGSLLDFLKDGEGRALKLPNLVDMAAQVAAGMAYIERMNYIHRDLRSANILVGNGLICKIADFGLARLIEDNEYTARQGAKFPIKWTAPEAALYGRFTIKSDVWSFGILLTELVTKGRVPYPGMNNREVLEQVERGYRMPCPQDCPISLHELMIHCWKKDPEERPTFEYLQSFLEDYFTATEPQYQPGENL
Sequence of kinases (KINOMEscan panel) (Homo sapiens, UniProt O75914) (O75914 whole entry): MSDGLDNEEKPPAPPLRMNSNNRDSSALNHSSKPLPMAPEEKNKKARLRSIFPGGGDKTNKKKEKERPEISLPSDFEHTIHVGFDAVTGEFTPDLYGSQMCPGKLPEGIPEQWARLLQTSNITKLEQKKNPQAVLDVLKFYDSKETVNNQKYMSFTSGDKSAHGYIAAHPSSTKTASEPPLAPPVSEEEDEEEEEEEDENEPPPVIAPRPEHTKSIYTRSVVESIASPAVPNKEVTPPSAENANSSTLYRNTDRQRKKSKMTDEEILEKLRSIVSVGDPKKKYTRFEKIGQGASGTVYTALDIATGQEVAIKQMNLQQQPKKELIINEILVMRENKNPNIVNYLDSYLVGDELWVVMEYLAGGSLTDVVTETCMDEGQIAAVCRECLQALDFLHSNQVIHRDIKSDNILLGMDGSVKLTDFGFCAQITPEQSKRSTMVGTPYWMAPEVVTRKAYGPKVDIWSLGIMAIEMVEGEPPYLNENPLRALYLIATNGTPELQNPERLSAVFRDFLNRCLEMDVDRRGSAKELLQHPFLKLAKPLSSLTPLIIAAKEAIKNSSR

Regarding `Cc1cccc(-c2nc(Nc3ccc4nn(C)cc4c3)c3ccccc3n2)n1` [NK167], the “KINOMEscan PAK3” value in [1] is 12. Besides, the “KINOMEscan EGFR(G719C)” value in assay [2] is on record as 0. Moreover, the “KINOMEscan FYN” value in assay [3] stood at 0. Further, the “KINOMEscan LYN” value in assay [4] turned out to be 17. Also, in assay [5], the “KINOMEscan EPHA3” value is 0. Besides, in assay [6], the “KINOMEscan EPHA5” value is given as 0. Also, in assay [7], the “KINOMEscan CDK16” value stood at 0. Besides, the “KINOMEscan ULK2” value in [8] was 17. For the same molecule, the “KINOMEscan STK39” value in [9] was found to be 11.

Take `Cc1cccc(-c2nc(N(C)c3ccc4ncsc4c3)c3ccccc3n2)n1` [NK-161]: the “KINOMEscan PAK3” value in [1] worked out at 17. Besides, in assay [2], the “KINOMEscan EGFR(G719C)” value was 0. Moreover, the “KINOMEscan FYN” value in assay [3] is on record as 0. Moreover, in [4], the “KINOMEscan LYN” value worked out at 12. For the same molecule, the “KINOMEscan EPHA3” value in assay [5] was determined as 0. The “KINOMEscan EPHA5” value in assay [6] stood at 9. In addition, in [7], the “KINOMEscan CDK16” value came to 0. Further, the “KINOMEscan ULK2” value in assay [8] is given as 23. Besides, the “KINOMEscan STK39” value in assay [9] is 0.

The values above are taken from PMC9851200, “Multiparameter phenotypic screening for endogenous TFEB and TFE3 translocation identifies novel chemical series modulating lysosome function” (Autophagy, 2022).
